Source: patent US20220389058A1, “PEPTIDES AND COMPOSITIONS FOR USE IN COSMETICS AND MEDICINE” (LIPOTRUE, S.L., priority 2019, published 2022)

Legend:
IL33 = IL33 expression modulation by RT-qPCR in HEKa cells (Example 7); format: cell-based, Human; settings: 0.01 mg/mL, 24 hours
Protocol: (§1) A stock solution of the peptide was prepared in water at 1 mg/mL. Working solution was freshly prepared at the specified concentration from stock solution in the corresponding supplemented medium.
RNA (ribonucleic acid) extraction and RT-qPCR (reverse transcription quantitative polymerase chain reaction) were performed. Briefly, HDFa and HEKa cells were seeded in duplicate (n=2) in 6-well plates at a density of 4×10^5 cells/well and maintained at standard culture conditions (106 Medium supplemented with 1% (v/v) LSGS for HDFa cells; Medium Epilife supplemented with 1% (v/v) EDGS and 1% (v/v) penicillin/streptomycin for HEKa cells; 37° C., 95% room humidity, 5% CO2) for 24 hours. Then, cells were treated with peptide Ac-SEQ ID NO: 1-NH2, Ac-SEQ ID NO: 2-NH2 or Ac-SEQ ID NO: 3-NH2 at the concentration of 0.01 mg/mL for 24 hours. Untreated cells were used as basal or negative control.
Cells were finally lysed, and replicates were pooled together for RNA extraction using Qiagen RNeasy Mini kit following manufacturer's instructions. Purified RNAs were used to generate the corresponding cDNAs (complementary deoxyribonucleic acids) by reverse transcription using a commercial kit High capacity cDNA reverse transcription kit (Applied Biosystems) which served as templates for amplification. RT-qPCR was performed with the appropriate TaqMan assay probes for IL33 (plus GAPDH—Glyceraldehyde 3-phosphate dehydrogenase—that was used as housekeeping gene) and 2×gene expression Master Mix using StepOne plus Real-Time PCR instrument. […] (Annealing and extension) (Arya, M., Shergill, I. S., Williamson, M., Gommersall, L., Arya, N., Patel, H. R. (2005) Basic principles of real-time quantitative PCR. Expert Rev. Mol. Diagn.; 5(2):209-19; and Jozefczuk, J. and Adjaye, J. (2011) Quantitative real-time PCR-based analysis of gene expression. Methods Enzymol. 500; 99-109).
(§2) The obtained data was analysed using the ΔΔCt method, which provides the target gene expression values as fold changes in the treated sample compared with an untreated basal sample. […]

HDFa cells [1] = assay: Expression of genes related with collagen production and extracellular matrix, RT-qPCR in HDFa (Example 10); format: cell-based, Human; settings: 0.01 mg/mL
Protocol: as §1
RNA (ribonucleic acid) extraction and RT-qPCR (reverse transcription quantitative polymerase chain reaction) were performed. Briefly, HDFa cells were seeded in duplicate (n=2) in 6-well plates at a density of 4×10^5 cells/well and maintained at standard culture conditions (106 Medium supplemented with 1% (v/v) LSGS; 37° C., 95% room humidity, 5% CO2) for 24 hours. Then, cells were treated with peptide Ac-SEQ ID NO: 1-NH2 at the concentration of 0.01 mg/mL for 24 and 48 hours. Untreated cells were used as basal or negative control.
Cells were finally lysed, and replicates were pooled together for RNA extraction using Qiagen RNeasy Mini kit following manufacturer's instructions. Purified RNAs were used to generate the corresponding cDNAs (complementary deoxyribonucleic acids) by reverse transcription using a commercial kit High capacity cDNA reverse transcription kit (Applied Biosystems) which served as templates for amplification. RT-qPCR was performed with the panel of appropriate TaqMan assay probes for genes shown in table 5 (plus GAPDH—Glyceraldehyde 3-phosphate dehydrogenase—that was used as housekeeping gene) and 2×gene expression Master Mix using StepOne plus Real-Time PCR instrument. Amplification included 40 cycles of: 15 seconds at 95° C. (denaturation) and 1 minute at 60° C. (Annealing and extension) (Arya, M., Shergill, I. S., Williamson, M., Gommersall, L., Arya, N., Patel, H. R. (2005) Basic principles of real-time quantitative PCR. Expert Rev. Mol. Diagn.; 5(2):209-19; and Jozefczuk, J. and Adjaye, J. (2011) Quantitative real-time PCR-based analysis of gene expression. Methods Enzymol. 500; 99-109).
The obtained data was analysed using the ΔΔCt method, which provides the target gene expression values as fold changes in the treated sample compared with an untreated basal sample. Both samples were normalized with the relative expression of a housekeeping gene GAPDH (Glyceraldehyde 3-phosphate dehydrogenase).

[2] = test system: Human Epidermal Keratinocytes (HEKa); assay: Innate antimicrobial immunity related genes, RT-qPCR in HEKa (Example 20); format: cell-based; settings: 0.01 mg/mL, 6 h
HDFa cells [3] = assay: Genes related with response to sleep deprivation, RT-qPCR in HDFa (Example 16); format: cell-based, Human; settings: 0.01 mg/ml, 24 hours
Protocol: as §1
(§3) RNA (ribonucleic acid) extraction and RT-qPCR (reverse transcription quantitative polymerase chain reaction) were performed. […]
(§4) Cells were finally lysed, and replicates were pooled together for RNA extraction using Qiagen RNeasy Mini kit following manufacturer's instructions. […] (Annealing and extension) (Arya, M., Shergill, I. S., Williamson, M., Gommersall, L., Arya, N., Patel, H. R. (2005) Basic principles of real-time quantitative PCR. Expert Rev. Mol. Diagn.; 5(2):209-19; and Jozefczuk, J. and Adjaye, J. (2011) Quantitative real-time PCR-based analysis of gene expression. Methods Enzymol. 500; 99-109).
as §2

HUVECs = assay: Genes related with response to sleep deprivation, RT-qPCR in HUVEC (Example 16); format: cell-based, Human; settings: 0.01 mg/ml, 24 hours
Protocol: as §1, §3, §4, §2

Substance: Ac-Arg-Arg-Gln-Met-Arg-Glu-NH2 (Ac-RRQMRE-NH2) [Ac-SEQ ID NO: 1-NH2]
- IL33 gene expression, fold change in treated cells with regard to basal control (IL33): −4.58 fold change
- COL3A1 Fold change between treated cells and basal control (HDFa cells [1]; 24 hours): 1.32 Fold change
- LAMA1 Fold change between treated cells and basal control (HDFa cells [1]; 24 hours): 1.16 Fold change
- TIMP2 Fold change between treated cells and basal control (HDFa cells [1]; 24 hours): 1.35 Fold change
- MMP1 Fold change between treated cells and basal control (HDFa cells [1]; 48 hours): −1.30 Fold change
- MMP3 Fold change between treated cells and basal control (HDFa cells [1]; 48 hours): −1.69 Fold change
- DEFB1 Fold change vs. Basal [2]: 1.31 Fold change
- DEFB4A Fold change vs. Basal [2]: 1.58 Fold change
- IRF1 Fold change vs. Basal [2]: 1.25 Fold change
- IRF3 Fold change vs. Basal [2]: 1.54 Fold change
- ISG15 Fold change vs. Basal [2]: 1.38 Fold change
- MX1 Fold change vs. Basal [2]: 1.93 Fold change
- OAS2 Fold change vs. Basal [2]: 1.39 Fold change
- S100A7 Fold change vs. Basal [2]: 2.04 Fold change
- IL1RL1 Fold change between treated cells and basal control (HDFa cells [3]): −1.26 Fold change
- NFKB1 Fold change between treated cells and basal control (HUVECs): −1.24 Fold change
